Earlier results as cited in article PMC5238771 (OncoTargets and therapy, 2017).

Legend:
CYP3A4 enzyme = conditions: both in vitro and in vivo
[1] = system: SMMC-7721 human hepatocellular carcinoma cell line; conditions: SMMC-7721 cells, dose-dependent and time-dependent
[2] = system: HepG2 human hepatocellular carcinoma cell line; conditions: HepG2 cells, dose-dependent and time-dependent

C[C@]12CC[C@H](O)C[C@H]1CC[C@@H]1[C@@H]2CC[C@]2(C)[C@@H](c3ccc(=O)oc3)CC[C@]12O [bufalin]
Inhibition of CYP3A4 enzyme (CYP3A4 enzyme): modest but significant inhibition
Inhibition of proliferation [1]: inhibited the proliferation
Inhibition of proliferation [2]: inhibited the proliferation
